Results from US5866775A, “Glyphosate-tolerant 5-enolpyruvyl-3-phosphoshikimate synthases” (Monsanto Company, priority 1990, dated 1999).

Test system: bacteria harboring pMON342 or pMON9566
Experiment: Glyphosate tolerance of bacteria expressing petunia EPSPS from the double pL promoter
Type: cell-based, E. coli
Conditions: either plasmid
Description: The double pL promoter used to express the petunia EPSP synthase in pMON342 and pMON9566 leads to a very high level of expression of the enzyme. The enzyme is present at such high concentration that bacteria harboring either of these plasmids are tolerant to very high levels of glyphosate (>5 mM) in growth media, even though the enzyme produced by pMON342 is the wild type form. […] A plasmid for identifying such a promoter was constructed as follows: pMON9544, the precursor to pMON342, was digested with BamHI to remove the pL promoters, and was recircularized by ligation resulting in pMON362. The EcoRI fragment of pMON9556 containing the 3'portion of the petunia EPSPS cDNA was then inserted into the EcoRI site of this plasmid reconstituting the entire coding sequence. The resulting plasmid, pMON364 is identical to pMON342 except that there is no promoter 5' of the EPSP synthase coding sequence.

O=C(O)CNCP(=O)(O)O [glyphosate, N-phosphonomethylglycine]
glyphosate level tolerated in growth media: > 5 mM
